According to patent publication US6090605A, “Purified porcine kidney L-fucose kinase” (The Board of Trustees of the University of Arkansas, priority 1998, dated 2000):

T1: pig kidney fucokinase (Sus scrofa, UniProt I3LTC2)
T1 construct: L-Fucokinase was purified to apparent homogeneity from the cytosolic fraction of pig kidney; from tissue; host or cells: pig kidney, cytosolic fraction
T1 sequence (I3LTC2 1-1083): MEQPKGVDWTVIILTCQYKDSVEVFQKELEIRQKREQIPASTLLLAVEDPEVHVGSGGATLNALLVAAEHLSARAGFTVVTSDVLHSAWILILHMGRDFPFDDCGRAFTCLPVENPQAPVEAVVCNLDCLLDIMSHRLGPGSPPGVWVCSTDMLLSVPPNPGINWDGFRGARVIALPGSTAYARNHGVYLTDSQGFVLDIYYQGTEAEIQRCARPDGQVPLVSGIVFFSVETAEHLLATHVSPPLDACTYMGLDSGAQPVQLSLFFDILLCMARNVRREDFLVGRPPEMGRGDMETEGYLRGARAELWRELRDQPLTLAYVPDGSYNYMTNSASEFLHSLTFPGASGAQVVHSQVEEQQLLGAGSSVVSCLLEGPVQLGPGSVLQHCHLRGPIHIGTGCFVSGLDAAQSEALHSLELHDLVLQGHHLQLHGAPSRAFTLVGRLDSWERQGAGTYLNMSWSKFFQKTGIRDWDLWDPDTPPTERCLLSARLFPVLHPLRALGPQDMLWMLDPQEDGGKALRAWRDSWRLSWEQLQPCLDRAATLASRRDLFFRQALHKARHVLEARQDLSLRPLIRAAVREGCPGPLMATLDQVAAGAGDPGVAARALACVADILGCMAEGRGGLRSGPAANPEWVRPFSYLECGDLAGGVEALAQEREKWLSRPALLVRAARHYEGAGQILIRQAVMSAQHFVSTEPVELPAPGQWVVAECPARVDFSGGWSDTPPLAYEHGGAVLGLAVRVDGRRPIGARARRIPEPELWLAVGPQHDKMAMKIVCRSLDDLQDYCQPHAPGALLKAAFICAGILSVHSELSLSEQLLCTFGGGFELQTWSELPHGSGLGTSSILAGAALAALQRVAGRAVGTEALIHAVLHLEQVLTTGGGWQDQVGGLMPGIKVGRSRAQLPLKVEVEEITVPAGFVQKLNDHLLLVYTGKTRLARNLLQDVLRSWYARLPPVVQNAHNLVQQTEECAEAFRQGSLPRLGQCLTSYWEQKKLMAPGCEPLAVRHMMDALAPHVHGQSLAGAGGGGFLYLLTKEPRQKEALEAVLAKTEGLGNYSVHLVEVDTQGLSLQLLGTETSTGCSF

T2: pig kidney fucokinase (110 kDa band) (Sus scrofa, UniProt I3LTC2)
T2 construct: L-Fucokinase was purified to apparent homogeneity from the cytosolic fraction of pig kidney; from tissue; host or cells: pig kidney, cytosolic fraction
T2 sequence (I3LTC2 1-1083): T1 sequence (I3LTC2 1-1083)

B1: pig kidney fucokinase (Sus scrofa) (protein)
chain: T1 sequence (I3LTC2 1-1083)
notes: L-Fucokinase was purified to apparent homogeneity from the cytosolic fraction of pig kidney; from tissue; host or cells: pig kidney, cytosolic fraction

Legend:
[1] = target: T1, pig kidney fucokinase; assay: Sugar specificity of purified fucokinase (radiolabeled sugars as phosphate acceptors); assay type: biochemical; conditions: for activity as phosphate acceptor (in words): purified enzyme; for Specific Activity: radiolabeled sugar 100 μM as phosphate acceptor
Description: (§1) Fucokinase activity was assayed by measuring the production of L-fucose-1-Pfrom [^3 H]L-fucose and ATP. The incubation mixtures contained the following components (final concentrations) in a total volume of 150 μl: L-fucose, 0.1 mM; ATP, 5 mM; MgSO4, 5 mM; Tris-HCl buffer, pH 8.0, 65 mM; and various amounts of enzyme at the different stages of purification. Incubations were at 37° C. for 10 minutes, and reactions were terminated by heating the reaction mixtures in a boiling water bath for 1 minute. The incubation mixtures were then applied to a column of DE-52 contained in a Pasteur pipette, and the column was washed with at least 5 column volumes of 10 mM (NH4)HCO3 to remove the unbound material. The [^3 H]fucose-1-P was then eluted with 500 mM (NH4)HCO3. Aliquots of the eluates were assayed for their radioactive content by subjecting a portion to scintillation counting.
The specificity of the kinase for various sugar substrates was examined in two different ways. In the first set of experiments, various radiolabeled sugars were tested as phosphate acceptors for the purified enzyme using the ion-exchange chromatography method for assay of activity. […] D-Arabinose, which has the same configuration at carbons 1 through 4 as L-fucose, was also a reasonable substrate for phosphorylation, and was about 10% as effective as L-fucose. On the other hand, all of the other sugars were ineffective as phosphate acceptors.

[2] = system: pig liver L-fucokinase preparation; conditions: cited from earlier work
[3] = target: T1, pig kidney fucokinase; assay: Inhibition of [3H]L-fucose phosphorylation by unlabeled monosaccharides; assay type: biochemical; conditions: unlabeled monosaccharide 500 μM; radiolabeled L-fucose substrate 100 μM
Description: as §1
Although it was possible to get a reasonable assessment of the sugar specificity of the kinase from the above experiment, it was not possible to test sugars such as D-fucose, since these sugars are not available in radioactive form. Thus, these unlabeled sugars were tested for their ability to inhibit the phosphorylation of [^3 H]L-fucose. The rationale for this experiment is that a sugar that inhibits the phosphorylation of L-fucose would probably compete with L-fucose for the phosphorylation (i.e., active) site.

[4] = system: pig liver L-fucokinase preparation; conditions: cited from earlier work; remark: listed apart in the source
[5] = target: T1, pig kidney fucokinase; assay: Inhibition of fucokinase by GDP-L-fucose and other GDP-linked sugars; assay type: biochemical
Description: as §1
It can be seen that the amount of inhibition of fucokinase increased with increasing amounts of GDP-L-fucose, and the Ki for GDP-L-fucose was estimated to be about 10 μM.

[6] = target: T1, pig kidney fucokinase; assay: Specificity of fucokinase for phosphate donor (nucleotides); assay type: biochemical; conditions: nucleotide added at 1 mM as phosphate donor
Description: as §1
The specificity of the nucleoside triphosphate was also examined by testing the ability of a variety of nucleotides to serve as phosphate donors in the phosphorylation of [^3 H]L-fucose. […] In addition, no activity is observed with any nucleoside diphosphates or monophosphates.

[7] = target: T2, pig kidney fucokinase (110 kDa band); assay: Photoaffinity labeling of the fucokinase with 8-azido-ATP[32P]; assay type: binding; conditions: unlabeled ATP 0.3-1.2 mM; GTP, ITP 0.6 and 1.2 mM
Description: The purified enzyme was incubated for 20 seconds with azido-ATP[^32 P], and the mixture was exposed to UV for 90 seconds. The reaction was stopped by adding loading buffer and the mixture subjected to SDS-PAGE. Radioactive bands were detected by exposure to film. Lanes are as follows: Lane 1, Probe+enzyme, but no UV; Lane 2, Probe+enzyme+UV; Lanes 3 through 6. Probe+enzyme+0.3, 0.6, 0.9, and 1.2 mM ATP+exposure to UV light; lanes 7 and 8, 0.6 and 1.2 mM GTP+probe+exposure to UV light: lanes 9 and 10, 0.6 and 1.2 mM ITP+probe+exposure to UV light. In lanes 11 and 12, the enzyme was incubated with N3 -GTP[^32 P ] and then exposed to UV light (lane 12) or not exposed to UV light (lane 11). Lane 13 is a control of enzyme+N3 -ATP[^32 P]+exposure to UV light.
Enzyme, at various stages of purity, was mixed with 8-azido-ATP[^32 P] in buffer, and allowed to incubate for 20 sec. in an ice bath. 8-Azido-ATP[^32 P] was prepared as previously described (16). After incubation, the reaction mixture was exposed to short wave UV light for about 90 sec. to activate the azido group, and the protein was subjected to SDS gel electrophoresis to separate the proteins. The gels were dried and exposed to film to locate the radioactive bands and were also stained with Coomassie blue to locate the various proteins. The specificity of the labeling was determined by examining the effect of various concentrations of unlabeled ATP or other nucleotides on the labeling of the protein by N3 -ATP[^32 P]. Various controls were also run, such as one in which exposure to UV was omitted.
Lanes 11-13 of FIG. 3 show the results of another experiment designed to determine whether 8-N3 -GTP[^32 P] could label the fucokinase. […] These experiments indicate that the fucokinase is quite specific for ATP.

[8] = substrate: Nc1ncnc2c1ncn2[C@@H]1O[C@H](COP(=O)(O)OP(=O)(O)OP(=O)(O)O)[C@@H](O)[C@H]1O; assay: Effect of substrate concentration on velocity (Lineweaver-Burke, Km); assay type: biochemical, pig; conditions: other: 5 mM Mg++ and 100 μM L-fucose; pH 8.0; 37.0 °C
Description: as §1
(§2) The effect of concentration of the substrates, L-fucose and ATP, on the velocity of the reaction was determined. The Km for L-fucose was determined at saturating concentrations of the other substrates, i.e., 5 mM ATP and 5 mM Mg^++. […] A similar experiment was performed with ATP. In this case, the reactions were done in the presence of 5 mM Mg^++ and 100 μM L-fucose. The Km for ATP was estimated to be 600 μM (data not shown).

[9] = substrate: C[C@H](O)[C@@H](O)[C@@H](O)[C@H](O)C=O; assay: as above; assay type: biochemical, pig; conditions: other: 5 mM ATP and 5 mM Mg++; pH 8.0; 37.0 °C
Description: as §1, §2

Molecule	activity as phosphate acceptor (in words) [1]	Specific Activity [1] [nmole/mg protein]	rate of phosphorylation compared with L-fucose (in words) [2]	Relative Activity (%) [3] [%]	inhibition of the fucokinase (in words) [5]	other results
O=C[C@H](O)[C@@H](O)[C@H](O)[C@H](O)CO [D-glucose]	does not phosphorylate	0.3	about the same rate or better	100	–	phosphorylation of sugar by the about 70-fold purified preparation (in words) [4]: considerable activity for phosphorylating
C[C@@H]1O[C@H](OP(=O)(O)O)[C@@H](O)[C@H](O)[C@@H]1O [L-fucose-1-P]	–	–	–	–	did not inhibit	–
Nc1nc2c(ncn2[C@@H]2O[C@H](COP(=O)(O)OP(=O)(O)OC3O[C@H](CO)[C@@H](O)[C@H](O)[C@H]3O)[C@@H](O)[C@H]2O)c(=O)[nH]1 (stereo partly drawn) [GDP-D-glucose]	–	–	–	–	did not inhibit	–
Nc1nc2c(ncn2[C@@H]2O[C@H](COP(=O)(O)OP(=O)(O)O[C@H]3O[C@H](CO)[C@@H](O)[C@H](O)[C@@H]3O)[C@@H](O)[C@H]2O)c(=O)[nH]1 [GDP-D-mannose]	–	–	–	–	did not inhibit	–
Nc1nc2c(ncn2[C@@H]2O[C@H](COP(=O)(O)OP(=O)(O)OP(=O)(O)O)[C@@H](O)[C@H]2O)c(=O)[nH]1 [GTP]	–	–	–	–	–	Specific Activity [6]: 0.09 nmoles/mg protein/10 min; use as phosphate donor (in words) [4]: could also use; inhibition of labeling of the 110 kDa band by N3-ATP[32P] (in words) [7]: considerably less effective in inhibiting
O=C[C@H](O)[C@@H](O)[C@@H](O)[C@H](O)CO [D-galactose]	does not phosphorylate	0	about the same rate or better	100	–	–
C[C@@H]1O[C@H](OP(=O)(O)OP(=O)(O)OC[C@H]2O[C@@H](n3cnc4c(=O)[nH]c(N)nc43)[C@H](O)[C@@H]2O)[C@@H](O)[C@H](O)[C@@H]1O [GDP-L-fucose]	–	–	–	–	–	Ki ([5]; 100 μM [3H]fucose, 5 mM ATP, 5 mM Mg++, pH 8.0): ~10 µM
O=c1[nH]cnc2c1ncn2[C@@H]1O[C@H](COP(=O)(O)OP(=O)(O)OP(=O)(O)O)[C@@H](O)[C@H]1O [ITP]	–	–	–	–	–	Specific Activity [6]: 0.10 nmoles/mg protein/10 min; inhibition of labeling of the 110 kDa band by N3-ATP[32P] (in words) [7]: considerably less effective in inhibiting
O=C[C@@H](O)[C@@H](O)[C@H](O)[C@H](O)CO [D-mannose]	does not phosphorylate	0	about the same rate or better	100	–	–
B1	–	–	–	–	–	Km [8]: 600 µM; Km [9]: 27 µM
